In patent US9278994B2, “Short antimicrobial lipopeptides” (Helix BioMedix Inc., priority 2012, dated 2016):
Converted amounts (≈) assume the structure as drawn. Where a SMILES comes first, the peptide text is derived from it. [ ]: non-standard residue; d: D form. The star is where a group is joined. Stearoyl = CCCCCCCCCCCCCCCCCC(=O)*; Palmitoyl = CCCCCCCCCCCCCCCC(=O)*; Lauroyl = CCCCCCCCCCCC(=O)*

Assays:
[1] = test system: C. albicans 105
Protocol: (§1) We conducted the minimal inhibitory concentration (MIC) determination using CLSI (Clinical and Laboratory standard Institute) recommended standard protocol for antimicrobials (Methods for Dilution Antimicrobial Susceptibility Tests for Bacteria That Grow Aerobically; Approved Standard—Ninth Edition).
(§2) 2. Bacterial strains and culture conditions. E. coli UB1005, S. aureus SAP0017 (MRSA) and C. albicans 105 were grown in Mueller Hinton (MH) (Difco, BD Biosciences, MD) agar plates and broth (2 g of beef extract, 17.5 g of acid hydrolysis of casein and 1.5 g of starch per liter) at 37° C. unless otherwise indicated. Bacteria from frozen stock were subcultured onto freshly made MH agar plates prior to susceptibility testing. For P. acnes, the bacterium was grown in BBL™ Brain-Heart infusion (Becton, Dickinson & Company, Sparks Md.) broth or agar plates at 37° C. in anaerobic condition generated using a anaerobic jar and AnaeroGen™ (Oxoid, Basingstoke, Hampshire, England).
(§3) 3. […] The minimal inhibitory concentration (MIC) of each peptide was determined using modified CLSI microtiter broth dilution assay (Methods for Dilution Antimicrobial Susceptibility Tests for Bacteria That Grow Aerobically; Approved Standard—Ninth Edition). An inoculum of 10^5-10^6 colony forming units (CFU)/ml was used or 10^4 CFU/ml for yeast. The MIC value was taken as the lowest peptide concentration at which more than 90% of microbial growth was inhibited after 15 to 20 h of incubation at 37° C. For P. acnes, the incubation was kept under anaerobic condition at 37° C. for 2 weeks before MIC was determined Kill kinetics was performed using a given concentration (about 2-5-fold MIC) of peptide mixed with indicator microorganism. After appropriate dilution the cells were plated on agar plates after defined time intervals and incubated at 37° C. overnight. In the case of P. acnes an extended incubation period was required. The CFU was counted and plotted as survival of bacteria after peptide treatment over time, which indicates the effectiveness of a peptide to kill a microbe.

[2] = test system: E. coli UB1005
Protocol: as §1, §2, §3

[3] = test system: S. aureus SAP0017 (MRSA)
Protocol: as §1, §2, §3

[4] = test system: P. acnes; assay type: cell-based, Propionibacterium acnes
Protocol: as §2, §3

[5] = test system: P. acnes, S. aureus, E. coli and C. albicans; assay: MIC / antimicrobial activity; assay type: cell-based; details: summary of MIC results of Table 1
Protocol: as §2, §3

[6] = test system: human dermal fibroblasts; assay: Gene profiling (PCR array of extracellular matrix adhesion molecule genes); assay type: cell-based; details: 5 μg/ml, 24 h; up (+) or down (−) regulation
Protocol: 5. Gene profiling analysis. The 84 genes encoding extracellular matrix adhesion molecules in human dermal fibroblasts were analyzed using PCR arrays conducted by Sunny Biodiscovery, Inc (Santa Paula, Calif.). Human dermal fibroblasts were from Zen-Bio, Research Triangle Park, N.C. (cat. #DF-F, lot #DFMF112410). […] At the end of the incubation cells were observed under the inverted Nikon TS microscope.
At the end of the incubation period cells were preserved in RNAlater solution (Ambion, Austin, Tex.) for 6 h. RNA was extracted and purified with NucleoSpin RNA II kit from Machery-Nagel, Bethleem, Pa.). Purified total RNA was assessed at 230 nm, 260 nm and 280 nm with Agilent HP-8452A diode array spectrophotometer. The concentration of RNA was equalized across the samples and the expression of genes of interest was measured by real-time quantitative PCR with BioRad iCycler iQ Detection System using PCR arrays PAHS-013A (www.sabiosciences.com/rt_pcr_product/HTML/PAHS-013A.html), with 1st strand synthesis kit, SYBR Green master mix and PCR running conditions from Qiagen (formerly SA Biosciences). Efficiency ΔΔCt method was used for quantification of results, after the normalization of gene expression to 5 housekeeping genes carried with the RT2 Profiler PCR Array Data Analysis version 3.5 software.

SMILES | MIC C. albicans [1] [µg/mL] | MIC E. coli [2] [µg/mL] | MIC S. aureus [3] [µg/mL] | MIC P. acnes [4] [µg/mL] | antimicrobial activity (in words) [5] | further results
CCCCCCCCCCCCCCCC(=O)N1CCC[C@H]1C(=O)N[C@@H](CCCCN)C(=O)O [HB2255, Pal-PK-OH] (Palmitoyl-Pro-Lys-OH) | >2000 | >2000 | >2000 | >2000 | inactive | –
CCCCCCCCCCCCCCCC(=O)N[C@@H](CCCCN)C(=O)N[C@@H](CC(C)C)C(N)=O [HB2244, Pal-KL-NH2] (Palmitoyl-Lys-Leu-NH2) | >2000 | >2000 | 250 (≈ 503 µM) | 8 (≈ 16.1 µM) | more Gram-positive selective activity | –
CCCCCCCCCCCCCCCC(=O)N[C@@H](CCCCN)C(=O)N[C@@H](CCCNC(=N)N)C(=O)O [HB2253, Pal-KR-OH] (Palmitoyl-Lys-Arg-OH) | 32 (≈ 59.2 µM) | 500 (≈ 925 µM) | 16 (≈ 29.6 µM) | 2 to 4 | broad spectrum antimicrobial activity | –
CCCCCCCCCCCCCCCC(=O)N[C@@H](CCCCN)C(=O)N1CCC[C@H]1C(=O)N[C@H](C(=O)O)C(C)C [HB2184, Pal-KPV-OH] (Palmitoyl-Lys-Pro-Val-OH) | >2000 | >2000 | >2000 | 8 (≈ 13.8 µM) | less active or inactive | –
CCCCCCCCCCCCCCCC(=O)N[C@@H](CCCCN)C(=O)N[C@H](C(N)=O)[C@@H](C)CC [HB2246, Pal-KI-NH2] | >2000 | >2000 | 128 (≈ 258 µM) | >2000 | more Gram-positive selective activity | –
CCCCCCCCCCCCCCCC(=O)N[C@@H](CCCCN)C(=O)N[C@@H](Cc1c[nH]cn1)C(N)=O [HB2242, Pal-KH-NH2] | 16 (≈ 30.7 µM) | 16 (≈ 30.7 µM) | 4 (≈ 7.68 µM) | 1 to 2 | broad spectrum antimicrobial activity | Fold change (peptide vs. PBS control) ADAMTS [6]: 4.7899 Fold change; Fold change (peptide vs. PBS control) CDH1 [6]: 1.9725 Fold change; Fold change (peptide vs. PBS control) COL1A1 [6]: 1.1975 Fold change; Fold change (peptide vs. PBS control) COL8A1 [6]: −1.4044 Fold change; Fold change (peptide vs. PBS control) HAS1 [6]: −2.3295 Fold change; Fold change (peptide vs. PBS control) ITGA6 [6]: −1.014 Fold change; Fold change (peptide vs. PBS control) ITGA7 [6]: −2.0279 Fold change; Fold change (peptide vs. PBS control) ITGB2 [6]: 1.3947 Fold change; Fold change (peptide vs. PBS control) KAL1 [6]: 1.8404 Fold change; Fold change (peptide vs. PBS control) MMP1 [6]: 1.7171 Fold change; Fold change (peptide vs. PBS control) MMP8 [6]: −1.6472 Fold change; Fold change (peptide vs. PBS control) MMP9 [6]: −1.6472 Fold change; Fold change (peptide vs. PBS control) MMP10 [6]: 1.2142 Fold change; Fold change (peptide vs. PBS control) MMP13 [6]: −2.4967 Fold change; Fold change (peptide vs. PBS control) MMP14 [6]: 1.2142 Fold change; Fold change (peptide vs. PBS control) SELE [6]: 1.3947 Fold change; Fold change (peptide vs. PBS control) THBS3 [6]: −3.0738 Fold change
CCCCCCCCCCCCCCCC(=O)N[C@@H](CCCCN)C(=O)NCC(N)=O [HB2243, Pal-KG-NH2] (Palmitoyl-Lys-Gly-NH2) | >2000 | >2000 | 250 (≈ 567 µM) | 32 to 64 | more Gram-positive selective activity | –
CCCCCCCCCCCCCCCC(=O)N[C@@H](CCCCN)C(=O)N1CCC[C@@H]1C(=O)N[C@H](C(=O)O)[C@@H](C)O [HB2182, Pal-KdPT-OH] (Palmitoyl-Lys-[dP]-Thr-OH) | >2000 | >2000 | >2000 | 32 (≈ 54.9 µM) | less active or inactive | –
CCCCCCCCCCCCCCCC(=O)N[C@@H](CCCCN)C(=O)N[C@@H](C)C(N)=O [HB2240, Pal-KA-NH2] (Palmitoyl-Lys-Ala-NH2) | >2000 | >2000 | >2000 | >2000 | – | –
CCCCCCCCCCCCCCCC(=O)N[C@@H](CCCCN)C(=O)N[C@@H](CCCNC(=N)N)C(N)=O [HB2259, Pal-KR-NH2] (Palmitoyl-Lys-Arg-NH2) | 16 (≈ 29.6 µM) | 8 (≈ 14.8 µM) | 2 (≈ 3.71 µM) | <1 | broad spectrum antimicrobial activity | Fold change (peptide vs. PBS control) ADAMTS [6]: 2.4284 Fold change; Fold change (peptide vs. PBS control) CDH1 [6]: 1.0718 Fold change; Fold change (peptide vs. PBS control) COL1A1 [6]: −1.8661 Fold change; Fold change (peptide vs. PBS control) COL8A1 [6]: −2.5847 Fold change; Fold change (peptide vs. PBS control) HAS1 [6]: −3.0314 Fold change; Fold change (peptide vs. PBS control) ITGA2 [6]: 1.3195 Fold change; Fold change (peptide vs. PBS control) ITGA7 [6]: −1.8661 Fold change; Fold change (peptide vs. PBS control) ITGB2 [6]: 2.1435 Fold change; Fold change (peptide vs. PBS control) KAL1 [6]: 1.2311 Fold change; Fold change (peptide vs. PBS control) MMP1 [6]: 1.1487 Fold change; Fold change (peptide vs. PBS control) MMP8 [6]: 2.1435 Fold change; Fold change (peptide vs. PBS control) MMP9 [6]: −2.1435 Fold change; Fold change (peptide vs. PBS control) MMP10 [6]: 1.6245 Fold change; Fold change (peptide vs. PBS control) MMP13 [6]: −3.249 Fold change; Fold change (peptide vs. PBS control) MMP14 [6]: −2.4623 Fold change; Fold change (peptide vs. PBS control) SELE [6]: 1.0718 Fold change; Fold change (peptide vs. PBS control) THBS3 [6]: −1.6245 Fold change
CCCCCCCCCCCCCCC(=O)N[C@@H](CCCCN)C(=O)N1CCC[C@@H]1C(=O)N[C@H](C(N)=O)[C@@H](C)O [HB2199, Pentadecanoyl-KdPT-NH2] | 32 (≈ 56.4 µM) | 64 (≈ 113 µM) | 32 (≈ 56.4 µM) | 2 to 4 | – | –
CCCCCCCCCCCCCCCC(=O)N[C@@H](CCCCN)C(=O)N1CCC[C@H]1C(=O)O [HB2257, Pal-KP-OH] (Palmitoyl-Lys-Pro-OH) | >2000 | >2000 | >2000 | >2000 | inactive | –
CCCCCCCCCCCC(=O)N[C@@H](CCCCN)C(=O)N1CCC[C@@H]1C(=O)N[C@H](C(N)=O)[C@@H](C)O [HB2197, Lauroyl-kdPT-NH2] (Lauroyl-Lys-[dP]-Thr-NH2) | 500 (≈ 951 µM) | 1000 (≈ 1900 µM) | 500 (≈ 951 µM) | 128 (≈ 243 µM) | – | –
CCCCCCCCCCCCCCCCCC(=O)N[C@@H](CCCCN)C(=O)N1CCC[C@H]1C(=O)N[C@H](C(N)=O)C(C)C [HB2194, Stearoyl-KPV-NH2] (Stearoyl-Lys-Pro-Val-NH2) | 16 (≈ 26.3 µM) | >2000 | 16 (≈ 26.3 µM) | 1 to 2 | – | –
